According to US20190055576A1, “USE OF HERBICIDE-TOLERANT PROTEIN” (BEIJING DABEINONG TECHNOLOGY GROUP CO., LTD., priority 2016, published 2019):

Test system: transgenic maize plants (Zm cytoplasmic/chloroplastic ALT-1-02, ALT-2-02, ALT-3-02)
Assay: Sulfometuron-methyl tolerance of transgenic maize plants, damage degree by plant growth status
Assay type: in vivo
Details: 120 g ai/ha; for Average damage % 3DAT / Average damage % 7DAT / Average damage % 14DAT / Average damage % 21DAT: 4-fold field concentration; for Average damage % 3DAT: 3 days after spraying; for Average damage % 7DAT: 7 days after spraying; for Average damage % 14DAT: 14 days after spraying; for Average damage % 21DAT: 21 days after spraying
Excerpt: The herbicide tolerance effects of Zm cytoplasmic ALT-1-02 maize plants, Zm chloroplastic ALT-1-02 maize plants, Zm cytoplasmic ALT-2-02 maize plants, Zm chloroplastic ALT-2-02 maize plants, Zm cytoplasmic ALT-3-02 maize plants, Zm chloroplastic ALT-3-02 maize plants and wild-type maize plants on Sulfometuron-methyl were detected (at V3-V4 stage), respectively.
Zm cytoplasmic ALT-1-02 maize plants, Zm chloroplastic ALT-1-02 maize plants, Zm cytoplasmic ALT-2-02 maize plants, Zm chloroplastic ALT-2-02 maize plants, Zm cytoplasmic ALT-3-02 maize plants, Zm chloroplastic ALT-3-02 maize plants and wild-type maize plants were respectively taken and sprayed with Sulfometuron-methyl (120 g ai/ha, 4-fold field concentration) and a blank solvent (water). The damage degree caused by the herbicide was measured for each plant according to the plant growth status 3 days after spraying (3 DAT), 7 days after spraying (7 DAT), 14 days after spraying (14 DAT) and 21 days after spraying (21 DAT), respectively: considering a growth status equivalent to that of the untreated plants as having a damage degree of 0%; considering conditions of leaves being partially chlorotic and yellow but substantially not affecting the plant normal growth as having a damage degree of 50%; and considering the whole plant being purple and dying as having a damage degree of 100%. There were 2 strains in Zm cytoplasmic ALT-1-02 maize plants in total (S13 and S14), 2 strains in Zm chloroplastic ALT-1-02 maize plants in total (S15 and S16), 2 strains in Zm cytoplasmic ALT-2-02 maize plants in total (S17 and S18), 2 strains in Zm chloroplastic ALT-2-02 maize plants in total (S19 and S20), 2 strains in Zm cytoplasmic ALT-3-02 maize plants in total (S21 and S22), 2 strains in Zm chloroplastic ALT-3-02 maize plants in total (S23 and S24), and 1 strain in wild-type maize plants (CK2) in total; and 10-15 plants were selected from each strain and tested.

[1] = strain S13 (Zm cytoplasmic ALT-1-02 maize)
[2] = strain S14 (Zm cytoplasmic ALT-1-02 maize)
[3] = strain S15 (Zm chloroplastic ALT-1-02 maize)
[4] = strain S16 (Zm chloroplastic ALT-1-02 maize)
[5] = strain S17 (Zm cytoplasmic ALT-2-02 maize)
[6] = strain S18 (Zm cytoplasmic ALT-2-02 maize)
[7] = strain S19 (Zm chloroplastic ALT-2-02 maize)
[8] = strain S20 (Zm chloroplastic ALT-2-02 maize)
[9] = strain S21 (Zm cytoplasmic ALT-3-02 maize)
[10] = strain S22 (Zm cytoplasmic ALT-3-02 maize)
[11] = strain S23 (Zm chloroplastic ALT-3-02 maize)
[12] = strain S24 (Zm chloroplastic ALT-3-02 maize)

In the case of `COC(=O)c1ccccc1S(=O)(=O)NC(=O)Nc1nc(C)cc(C)n1` [Sulfometuron-methyl, 2-(4,6-dimethylpyrimidine-2-amino-formamido-sulfonyl) methyl benzoate], the “Average damage % 3DAT” value [1] is reported as 6%, the “Average damage % 7DAT” value [1] is reported as 0% and the “Average damage % 14DAT” value [1] is reported as 0%. The “Average damage % 21DAT” value [1] was 0%, the “Average damage % 3DAT” value [2] was 7% and the “Average damage % 7DAT” value [2] was 0%. For the same molecule, the “Average damage % 14DAT” value [2] was 0%, the “Average damage % 21DAT” value [2] was 0% and the “Average damage % 3DAT” value [3] was 0%. For the same molecule, the “Average damage % 7DAT” value [3] was 0%, the “Average damage % 14DAT” value [3] was 0% and the “Average damage % 21DAT” value [3] was 0%. The “Average damage % 3DAT” value [4] was 0%, the “Average damage % 7DAT” value [4] was 0% and the “Average damage % 14DAT” value [4] was 0%. For the same molecule, the “Average damage % 21DAT” value [4] was 0%, the “Average damage % 3DAT” value [5] was 6% and the “Average damage % 7DAT” value [5] was 0%. The “Average damage % 14DAT” value [5] was 0%, the “Average damage % 21DAT” value [5] was 0% and the “Average damage % 3DAT” value [6] was 5%. The “Average damage % 7DAT” value [6] was 0%, the “Average damage % 14DAT” value [6] was 0% and the “Average damage % 21DAT” value [6] was 0%. For the same molecule, the “Average damage % 3DAT” value [7] was 0%, the “Average damage % 7DAT” value [7] was 0% and the “Average damage % 14DAT” value [7] was 0%. For the same molecule, the “Average damage % 21DAT” value [7] was 0%, the “Average damage % 3DAT” value [8] was 0% and the “Average damage % 7DAT” value [8] was 0%. The “Average damage % 14DAT” value [8] was 0%, the “Average damage % 21DAT” value [8] was 0% and the “Average damage % 3DAT” value [9] was 5%. The “Average damage % 7DAT” value [9] was 0%, the “Average damage % 14DAT” value [9] was 0% and the “Average damage % 21DAT” value [9] was 0%. The “Average damage % 3DAT” value [10] was 5%, the “Average damage % 7DAT” value [10] was 0% and the “Average damage % 14DAT” value [10] was 0%. The “Average damage % 21DAT” value [10] was 0%, the “Average damage % 3DAT” value [11] was 0% and the “Average damage % 7DAT” value [11] was 0%. For the same molecule, the “Average damage % 14DAT” value [11] was 0%, the “Average damage % 21DAT” value [11] was 0% and the “Average damage % 3DAT” value [12] was 0%. For the same molecule, the “Average damage % 7DAT” value [12] was 0%, the “Average damage % 14DAT” value [12] was 0% and the “Average damage % 21DAT” value [12] was 0%. The “herbicide tolerance conferred by the thifensulfuron hydrolase (ALT-1, ALT-2 and ALT-3)” value (transgenic maize plants) was “conferred a high level of Sulfometuron-methyl herbicide tolerance”.
